From US7723265B2, “Pesticide compositions containing oxalic acid” (Monsanto Technology, priority 2000, dated 2010)
Like-named read-outs stand apart in the source and are kept apart here.

Assays:
Format in all cases: in vivo
[1] = tested on: velvetleaf (Abutilon theophrasti, ABUTH); assay: Greenhouse test of herbicidal effectiveness (visual percent control) on velvetleaf
Excerpt: (§1) The following procedure was used for testing compositions of the Examples to determine herbicidal effectiveness, except where otherwise indicated.
(§2) Seeds of the plant species indicated were planted in 85 mm square pots in a soil mix which was previously steam sterilized and prefertilized with a 14-14-14 NPK slow release fertilizer at a rate of 3.6 kg/m3. The pots were placed in a greenhouse with sub-irrigation. About one week after emergence, seedlings were thinned as needed, including removal of any unhealthy or abnormal plants, to create a uniform series of test pots.
The plants were maintained for the duration of the test in the greenhouse where they received a minimum of 14 hours of light per day. […] Exposure temperatures were not precisely controlled but averaged about 27° C. during the day and about 18° C. during the night. Plants were sub-irrigated throughout the test to ensure adequate soil moisture levels.
(§3) Pots were assigned to different treatments in a randomized experimental design with 6 replications. A set of pots was left untreated as a reference against which effects of the treatments could later be evaluated.
(§4) Application of glyphosate compositions was made by spraying with a track sprayer fitted with a 9501E nozzle calibrated to deliver a spray volume of 93 liters per hectare (l/ha) at a pressure of 166 kilopascals (kPa). After treatment, pots were returned to the greenhouse until ready for evaluation.
Treatments were made using dilute aqueous compositions. These could be prepared as spray compositions directly from their ingredients, or by dilution with water of preformulated concentrate compositions.
For evaluation of herbicidal effectiveness, all plants in the test were examined by a single practiced technician, who recorded percent control, a visual measurement of the effectiveness of each treatment by comparison with untreated plants. […] The reported % control values represent the average for all replicates of each treatment.

[2] = tested on: Japanese millet (Echinochloa crus-galli var. frumentae, ECHCF); assay: Herbicidal effectiveness (percent control) on Japanese millet; conditions: comparison as worded in the text of the example
Excerpt: as §1
as §2, with “pots. […]” for “pots.”
as §3
as §4, with “evaluation. […]” for “evaluation.”
(§5) For evaluation of herbicidal effectiveness, all plants in the test were examined by a single practiced technician, who recorded percent control, a visual measurement of the effectiveness of each treatment by comparison with untreated plants. […]

sicklepod (CASOB) = assay: Herbicidal effectiveness (percent control) on sicklepod; conditions: comparison as worded in the text of the example
morningglory (IPOSS) = assay: Herbicidal effectiveness (percent control) on morningglory; conditions: comparison as worded in the text of the example
Excerpt: as §1
as §2, with “pots. […]” for “pots.”
as §3
as §4, with “evaluation. […]” for “evaluation.”
as §5

Prickly sida (SIDSP) = assay: Herbicidal effectiveness (percent control) on prickly sida; conditions: comparison as worded in the text of the example
Excerpt: as §1
as §2, with “pots. […]” for “pots.”
as §3
as §4, with “evaluation. […]” for “evaluation.”
as §5

Indian Mustard (BRSJU) = assay: Herbicidal effectiveness (percent control) on Indian mustard; conditions: comparison as worded in the text of the example
Excerpt: as §1
as §2, with “pots. […]” for “pots.”
as §3
as §4, with “evaluation. […]” for “evaluation.”
as §5

hemp sesbania (SEBEX) = assay: Herbicidal effectiveness (percent control) on hemp sesbania; conditions: comparison as worded in the text of the example
Excerpt: as §1
as §2, with “pots. […]” for “pots.”
as §3
as §4, with “evaluation. […]” for “evaluation.”
as §5

[3] = tested on: Yellow nutsedge (Cyperus esculentus, CYPES); assay: Herbicidal effectiveness (percent control) on yellow nutsedge; conditions: 0.03% oxalic acid in potassium glyphosate tank mixes
velvetleaf (ABUTH) = assay: Rainfastness of Roundup UltraMax with oxalic acid on velvetleaf; conditions: glyphosate a.e.:oxalic acid 15:1; 0.25 inches of rain one or two hours after treatment, or no rain
Method: The rainfastedness of a Roundup UltraMax and oxalic acid, at a weight ratio of glyphosate a.e. to oxalic acid of 15:1, was evaluated. The Roundup UltraMax formulations were applied at rates of 300 and 500 g a.e./ha and evaluated with no rain, 0.25 inches of rain at one hour after treatment, and 0.25 inches of rain at two hours after treatment.

[4] = comparison as worded in the text of the example

O=C(O)CCC(=O)O [Succinic acid]
herbicidal efficacy on velvetleaf (ABUTH), result in words [1, 4]: did not significantly effect the efficacy

C[N+](C)(C)Cc1ccccc1.[OH-] [Benzyltrimethylammonium hydroxide]
herbicidal efficacy on velvetleaf (ABUTH), result in words [1, 4]: better efficacy than did the commercial Roundup UltraMax standard

O=P(O)(O)O [Phosphoric acid]
herbicidal efficacy on velvetleaf (ABUTH), result in words [1, 4]: did not significantly effect the efficacy | herbicidal efficacy on velvetleaf (ABUTH), result in words ([1]; comparison as worded in the text of the example, listed as phosphoric acid): did not have significant impact on the efficacy

O=C(O)[C@H](O)[C@@H](O)[C@H](O)[C@H](O)CO [Gluconic acid]
herbicidal efficacy on velvetleaf (ABUTH), result in words [1, 4]: did not significantly effect the efficacy

O=C(O)CCCCC(=O)O [adipic acid, Adipic acid]
herbicidal efficacy on velvetleaf (ABUTH), result in words [1, 4]: some increased efficacy

CC(=O)O [Acetic acid]
herbicidal efficacy on velvetleaf (ABUTH), result in words [1, 4]: did not significantly effect the efficacy

O=C([O-])C(=O)[O-].[K+].[K+] [Dipotassium oxalate, dipotassium oxalate]
herbicidal efficacy on velvetleaf (ABUTH), result in words [1, 4]: enhanced efficacy regardless of the glyphosate salt | herbicidal efficacy on ECHCF (barnyardgrass), result in words [2]: relatively ineffective for enhancing efficacy against barnyardgrass

O=C(O)C(=O)O [Oxalic acid]
herbicidal efficacy on velvetleaf (ABUTH), result in words [1]: further increased efficacy | herbicidal efficacy on ECHCF (barnyardgrass), result in words [2]: did not significantly enhance glyphosate efficacy on barnyardgrass | herbicidal efficacy on sicklepod (CASOB), result in words (sicklepod (CASOB)): did not give statistically significant efficacy enhancement on sicklepod | herbicidal efficacy on morningglory (IPOSS), result in words (morningglory (IPOSS)): equally effective in enhancing Roundup UltraMax efficacy on morningglory | herbicidal efficacy on prickly sida (SIDSP), result in words (Prickly sida (SIDSP)): gave efficacy enhancement | herbicidal efficacy on Indian mustard (BRSJU), result in words (Indian Mustard (BRSJU)): did not provide significant efficacy enhancement on Indian mustard | herbicidal efficacy on hemp sesbania (SEBEX), result in words (hemp sesbania (SEBEX)): equal with the standards regardless of the presence of oxalic acid | herbicidal efficacy on yellow nutsedge (CYPES), result in words [3]: did not provide synergy on yellow nutsedge | rainfastness on velvetleaf, result in words (velvetleaf (ABUTH)): did not provide any rainfastness properties for Roundup UltraMax on velvetleaf

C[N+](C)(C)Cc1ccccc1.[Cl-] [Benzyltrimethylammonium chloride]
herbicidal efficacy on velvetleaf (ABUTH), result in words [1, 4]: better efficacy than did the commercial Roundup UltraMax standard

O=C(O)CC(O)(CC(=O)O)C(=O)O [Citric acid]
herbicidal efficacy on velvetleaf (ABUTH), result in words [1, 4]: did not significantly effect the efficacy | herbicidal efficacy on velvetleaf (ABUTH), result in words ([1]; comparison as worded in the text of the example, listed as citric acid): did not have significant impact on the efficacy

NC(=O)CCC(=O)O [Succinamic acid]
herbicidal efficacy on velvetleaf (ABUTH), result in words [1, 4]: antagonistic effect on glyphosate efficacy

CC(O)C(=O)O (centres unmarked) [Lactic acid]
herbicidal efficacy on velvetleaf (ABUTH), result in words [1, 4]: did not significantly effect the efficacy
